In patent US8598365B2, “Herbicides” (Syngenta Limited, priority 2007, dated 2013):

What was measured:
Format in all cases: in vivo
[1] = system: Alopecurus myosuroides (ALOMY); assay: Example B pre-emergence herbicidal activity; conditions: 312 h, rate 250 g/ha, evaluated after 13 days, read-out: Pre-Emergence Activity ALOMY (100=total damage to plant; 0=no damage to plant)
Method: (§1) Seeds of a variety of test species were sown in standard soil in pots. After cultivation for one day (pre-emergence) or after 8 days cultivation (post-emergence) under controlled conditions in a glasshouse (at 24/16° C., day/night; 14 hours light; 65% humidity), the plants were sprayed with an aqueous spray solution derived from the formulation of the technical active ingredient in acetone/water (50:50) solution containing 0.5% Tween 20 (polyoxyethelyene sorbitan monolaurate, CAS RN 9005-64-5).
(§2) The test plants were then grown in a glasshouse under controlled conditions in a glasshouse (at 24/16° C., day/night; 14 hours light; 65% humidity) and watered twice daily. After 13 days for pre and post-emergence, the test was evaluated (100=total damage to plant; 0=no damage to plant).
(§3) Alopecurus myosuroides (ALOMY), Avena fatua (AVEFA), Setaria faberi (SETFA), Echinochloa crus-galli (ECHCG), Solanum nigrum (SOLNI) and Amaranthus retoflexus (AMARE)

[2] = system: Amaranthus retoflexus (AMARE); assay: Example B pre-emergence herbicidal activity; conditions: Amaranthus retroflexus, 312 h, rate 250 g/ha, evaluated after 13 days, read-out: Pre-Emergence Activity AMARE (100=total damage to plant; 0=no damage to plant)
Method: as §1, §2, §3

[3] = system: Avena fatua (AVEFA); assay: Example B pre-emergence herbicidal activity; conditions: 312 h, rate 250 g/ha, evaluated after 13 days, read-out: Pre-Emergence Activity AVEFA (100=total damage to plant; 0=no damage to plant)
Method: as §1, §2, §3

[4] = system: Echinochloa crus-galli (ECHCG); assay: Example B pre-emergence herbicidal activity; conditions: 312 h, rate 250 g/ha, evaluated after 13 days, read-out: Pre-Emergence Activity ECHCG (100=total damage to plant; 0=no damage to plant)
Method: as §1, §2, §3

[5] = system: Setaria faberi (SETFA); assay: Example B pre-emergence herbicidal activity; conditions: 312 h, rate 250 g/ha, evaluated after 13 days, read-out: Pre-Emergence Activity SETFA (100=total damage to plant; 0=no damage to plant)
Method: as §1, §2, §3

[6] = system: Alopecurus myosuroides (ALOMY); assay: Example B post-emergence herbicidal activity; conditions: 312 h, rate 250 g/ha, evaluated after 13 days, read-out: Post-emergence activity ALOMY (100=total damage to plant; 0=no damage to plant)
Method: as §1, §2, §3

[7] = system: Amaranthus retoflexus (AMARE); assay: Example B post-emergence herbicidal activity; conditions: Amaranthus retroflexus, 312 h, rate 250 g/ha, evaluated after 13 days, read-out: Post-emergence activity AMARE (100=total damage to plant; 0=no damage to plant)
Method: as §1, §2, §3

[8] = system: Avena fatua (AVEFA); assay: Example B post-emergence herbicidal activity; conditions: 312 h, rate 250 g/ha, evaluated after 13 days, read-out: Post-emergence activity AVEFA (100=total damage to plant; 0=no damage to plant)
Method: as §1, §2, §3

[9] = system: Echinochloa crus-galli (ECHCG); assay: Example B post-emergence herbicidal activity; conditions: 312 h, rate 250 g/ha, evaluated after 13 days, read-out: Post-emergence activity ECHCG (100=total damage to plant; 0=no damage to plant)
Method: as §1, §2, §3

[10] = system: Setaria faberi (SETFA); assay: Example B post-emergence herbicidal activity; conditions: 312 h, rate 250 g/ha, evaluated after 13 days, read-out: Post-emergence activity SETFA (100=total damage to plant; 0=no damage to plant)
Method: as §1, §2, §3

Row | Structure (SMILES) | pest or weed control at 250 g/ha [1] [%] | pest or weed control at 250 g/ha [2] [%] | pest or weed control at 250 g/ha [3] [%] | pest or weed control at 250 g/ha [4] [%] | pest or weed control at 250 g/ha [5] [%] | pest or weed control at 250 g/ha [6] [%] | pest or weed control at 250 g/ha [7] [%] | pest or weed control at 250 g/ha [8] [%] | pest or weed control at 250 g/ha [9] [%] | pest or weed control at 250 g/ha [10] [%]
1 | CCc1sc(-c2ccc(Cl)cc2)nc1C1=C(OC(=O)C2CC2)C2CCC(C2)C1=O (stereo not shown) [Compound P1] | 80 | 0 | 0 | 100 | 100 | 100 | 0 | 100 | 100 | 100
2 | CCc1sc(-c2ccc(Cl)cc2)nc1C1=C(OC(=O)C(C)(C)C)C2CCC(C2)C1=O (stereo not shown) [Compound P2, 2,2-dimethylpropionic acid 3-[2-(4-chloro-phenyl)-5-ethylthiazol-4-yl]-4-oxobicyclo[3.2.1]oct-2-en-2-yl ester] | 80 | 0 | 40 | 100 | 100 | 100 | 0 | 100 | 100 | 100
3 | Cc1sc(-c2ccc(Cl)c(Cl)c2)nc1C1=C(OC(=O)C(C)(C)C)[C@H]2CC[C@H](C2)C1=O [Compound P3] | 20 | 0 | 0 | 80 | 100 | 60 | 0 | 0 | 80 | 100
4 | Cc1sc(-c2ccc(Cl)c(C(F)(F)F)c2)nc1C1=C(OC(=O)C(C)(C)C)[C@H]2CC[C@H](C2)C1=O [Compound P4] | 0 | 40 | 0 | 0 | 90 | 20 | 0 | 0 | 80 | 80
5 | CCOC(=O)/C=C/OC1=C(c2nc(-c3ccc(Cl)cc3)sc2CC)C(=O)[C@H]2CC[C@@H]1C2 [Compound P5] | 100 | 0 | 30 | 40 | 100 | 100 | 0 | 90 | 100 | 100
6 | CC(=O)OC1=C(c2nc(-c3ccc(Br)cn3)sc2C)C(=O)[C@H]2CC[C@@H]1C2 [Compound P6] | 20 | 0 | 0 | 20 | 100 | 90 | 0 | 80 | 100 | 100
7 | Cc1cc(-c2nc(C3C(=O)[C@@H]4CC[C@@H](C4)C3=O)c(C)s2)ccc1Cl (stereo partly shown) [Compound T4] | 50 | 0 | 0 | 60 | 30 | 60 | 0 |  | 100 | 80
8 | Cc1sc(-c2ccc(OC(C)C)c(Cl)c2)nc1C1C(=O)[C@@H]2CC[C@@H](C2)C1=O (stereo partly shown) [Compound T79] |  |  |  |  |  | 0 | 0 | 0 | 0 | 10
9 | O=C1C(c2cncc(Cl)c2)C(=O)[C@H]2CC[C@@H]1C2 (stereo partly shown) [Compound T85] | 0 | 30 | 0 | 0 | 0 |  |  |  |  | 
10 | CCc1sc(-c2ccc(Cl)cc2)[n+]([O-])c1C1C(=O)[C@@H]2CC[C@@H](C2)C1=O (stereo partly shown) [Compound T89] |  |  |  |  |  | 0 | 0 | 0 | 30 | 80
11 | Cc1oc(-c2ccc(Cl)cc2)nc1C1C(=O)[C@@H]2CC[C@@H](C2)C1=O (stereo partly shown) [Compound T90] |  |  |  |  |  | 0 | 0 | 0 | 30 | 40
12 | CCc1sc(-c2ccccc2OC)nc1C1C(=O)[C@@H]2CC[C@@H](C2)C1=O (stereo partly shown) [Compound T95] |  |  |  |  |  | 80 | 0 | 30 | 70 | 80
13 | CCc1sc(-c2ccsc2)nc1C1C(=O)[C@@H]2CC[C@@H](C2)C1=O (stereo partly shown) [Compound T97] |  |  |  |  |  | 0 | 0 | 0 | 70 | 70
14 | CCc1sc(-c2cccc(Cl)c2Cl)nc1C1C(=O)[C@@H]2CC[C@@H](C2)C1=O (stereo partly shown) [Compound T98] |  |  |  |  |  | 20 | 0 | 0 | 70 | 70
15 | CCc1sc(-c2ccc(C(=O)OC)cc2)nc1C1C(=O)[C@@H]2CC[C@@H](C2)C1=O (stereo partly shown) [Compound T107] |  |  |  |  |  | 0 | 0 | 0 | 60 | 0
16 | CCOc1ccc(-c2nc(C3C(=O)[C@@H]4CC[C@@H](C4)C3=O)c(CC)s2)cc1F (stereo partly shown) [Compound T112] |  |  |  |  |  | 70 | 0 | 80 | 100 | 100
17 | C=Cc1ccc(-c2nc(C3C(=O)[C@@H]4CC[C@@H](C4)C3=O)c(CC)s2)cc1 (stereo partly shown) [Compound T113] |  |  |  |  |  | 90 | 0 | 100 | 100 | 90
18 | CCc1sc(-c2ccc(OC(C)C)c(Cl)c2)nc1C1C(=O)[C@@H]2CC[C@@H](C2)C1=O (stereo partly shown) [Compound T114] |  |  |  |  |  | 10 | 0 | 0 | 60 | 90
19 | Cc1ncc(-c2ccc(Cl)cc2)cc1C1C(=O)[C@@H]2CC[C@@H](C2)C1=O (stereo partly shown) [Compound T118] |  |  |  |  |  | 60 | 0 | 80 | 60 | 80
20 | Cc1sc(-c2ccc(Cl)cc2)nc1C1C(=O)[C@H]2C[C@@H](C1=O)C2(C)C (stereo partly shown) [Compound T120] |  |  |  |  |  | 40 | 0 | 60 | 100 | 90
21 | Cc1sc(-c2ccc(Br)cc2)nc1C1C(=O)[C@H]2C[C@@H](C1=O)C2(C)C (stereo partly shown) [Compound T121] |  |  |  |  |  | 70 | 0 | 80 | 100 | 90
